7 compounds from patent EP2242752B1, “[…] IMIDAZOLES AS HEPATITIS C VIRUS INHIBITORS” (Bristol-Myers Squibb Company, priority 2008, dated 2009) can be followed below.

This test concerns HCV 1b genotype. The test can be described thus: HCV Replicon assay (HCV 16-377-neo replicon cells). The conditions noted are these: Hepatitis C virus; HCV 1b genotype replicon cells; read-out: EC50 ranges against HCV 1b. Type of test: cell-based. The method, then:
An HCV Replion assay was utilized in the present disclosure, and was prepared, conducted and validated as described in commonly owned PCT/US2006/022197 and in O'Boyle et. al. Antimicrob Agents Chemother. 2005 Apr;49(4): 1346-53.
HCV 16-377-neo replicon cells were used to test the currently described compound series as well as cells resistant to compound A due to a Y2065H mutation in NS5A (described in application PCT/US2006/022197). The compounds tested were determined to have more than 10-fold less inhibitory activity on cells resistant to compound A than wild-type cells indicating a related mechanism of action between the two compound series. Thus, the compounds of the present disclosure can be effective to inhibit the function of the HCV NS5A protein and are understood to be as effective in combinations as previously described in application PCT/US2006/022197 and commonly owned WO/O4014852. Further, the compounds of the present disclosure can be effective against the HCV 1b genotype. It should also be understood that the compounds of the present disclosure can inhibit multiple genotypes of HCV. […] In one embodiment compounds of the present disclosure are active against the 1a, 1b, 2a, 2b, 3a, 4a, and 5a genotypes.
One may read the EC50 as the concentration that produces a half-maximal response. As to `COC(=O)NCC(=O)N1[C@@H]2C[C@@H]2C[C@H]1c1ncc(-c2ccc(-c3ccc(-c4cnc([C@@H]5C[C@H]6C[C@H]6N5C(=O)CNC(=O)OC)[nH]4)cc3)cc2)[nH]1` (mixture of isomers) [Example M134, methyl (2-((1R,3S,SR)-3-(4-(4'-(2-((1R,3S,SR)-2-(((methoxycarbonyl)amino)acetyl)-2-azabicyclo[3.1.0]hex-3-yl)-1H-imidazol-4-yl)-4-biphenylyl)-1H-imidazol-2-yl)-2-azabicyclo[3.1.0]hex-2-yl)-2-oxoethyl) carbamate], the EC50 is 1 to 99 nM.

For the compound `COC(=O)N[C@@H](C(=O)N1[C@@H]2C[C@H]2C[C@H]1c1nc(-c2ccc(-c3ccc(-c4c[nH]c([C@@H]5C[C@@H]6C[C@H]6N5C(=O)[C@H](NC(=O)OC)c5ccccc5)n4)cc3)cc2)c[nH]1)c1ccccc1` (mixture of isomers) [Example M137, dimethyl (4,4'-biphenyldiylbis(1H-imidazole-4,2-diyl(1R,3S,SR)-2-azabicyclo[3.1.0]hexane-3,2-diyl((1R)-2-oxo-1-phenyl-2,1-ethanediyl)))biscarbamate], the EC50 lay within 0.001 to 0.999 nM. As for `COC(=O)N[C@H](C(=O)N1[C@@H]2C[C@@H]2C[C@H]1c1nc(-c2ccc(-c3ccc(-c4c[nH]c([C@@H]5CC6C[C@H]6N5C(C)=O)n4)cc3)cc2)c[nH]1)C(C)C` (mixture of isomers) [Example M138, methyl ((1S)-1-(((1R,3S,5R)-3-(4-(4'-(2-((1R,3S,SR)-2-acetyl-2-azabicyclo[3.1.0]hex-3yl)-1Himidazol-4yl)-4-biphenylyl)-1Himidazol-2-yl)-2-azabicyclo[3.1.0]hex-2-yl)carbonyl)-2-methylpropyl)carbamate], the figure is 0.001 to 0.999 nM. As for `CC(=O)N[C@@H](C(=O)N1[C@@H]2CC2C[C@H]1c1nc(-c2ccc(-c3ccc(-c4c[nH]c([C@@H]5C[C@H]6C[C@H]6N5C(=O)[C@H](NC(C)=O)C(C)C)n4)cc3)cc2)c[nH]1)C(C)C` (mixture of isomers) [Example M143, N-((1R)-1-(((1R,3S,5R)-3-(4-(4'-(2-((1R,3S,SR)-2-((2R)-2-acetamido-3-methylbutanoyl)-2-azabicyclo[3.1.0]hex-3-yl)-1H-imidazol-4-yl)-4-biphenylyl)-1H-imidazol-2-yl)-2-azabicyclo[3.1.0]hex-2-yl)carbonyl)-2-methylpropyl)acetamide], the figure is 1 to 99 nM. With `Cc1[nH]c([C@@H]2CCCN2C(=O)[C@@H](c2ccccc2)N(C)C)nc1-c1ccc(-c2ccc(-c3c[nH]c([C@@H]4CCCN4C(=O)[C@@H](c4ccccc4)N(C)C)n3)cc2)cc1` [Example E5, (1R)-2-((2S)-2-(4-(4'-(2-((2S)-1-((2R)-2-(dimethylamino)-2-phenylacetyl)-2-pyrrolidinyl)-1H-imidazol-4-yl)-4-biphenylyl)-5-methyl-1 H-imidazol-2-yl)-1-pyrrolidinyl)-N,N-dimethyl-2-oxo-1-phenylethanamine], the EC50 was 0.001 to 0.999 nM.

`CCN(CC)[C@@H](C(=O)N1CCC[C@H]1c1nc(-c2ccc(-c3ccc(-c4nc([C@@H]5CCCN5C(=O)[C@@H](c5ccccc5)N(CC)CC)[nH]c4C)cc3)cc2)c[nH]1)c1ccccc1` [Example E5a, (1R)-2-((2S)-2-(4-(4'-(2-((2S)-1-((2R)-2-(diethylamino)-2-phenylacetyl)-2-pyrrolidinyl)-1H-imidazol-4-yl)-4-biphenylyl)-5-methyl-1H-imidazol-2-yl)-1-pyrrolidinyl)-N,N-diethyl-2-oxo-1-phenylethanamine]: the EC50 fell in the range of 0.001 to 0.999 nM. As for `Cc1nc([C@@H]2CCCN2C(=O)[C@@H](c2ccccc2)N2CCCCC2)[nH]c1-c1ccc(-c2ccc(-c3c[nH]c([C@@H]4CCCN4C(=O)[C@@H](c4ccccc4)N4CCCCC4)n3)cc2)cc1` [Example E5b, 1-((1R)-2-((2S)-2-(4-(4'-(4-methyl-2-((2S)-1-((2R)-2-phenyl-2-(1-piperidinyl)acetyl)-2-pyrrolidinyl)-1H-imidazol-5-yl)-4-biphenylyl)-1H-imidazol-2-yl)-1-pyrrolidinyl)-2-oxo-1-phenylethyl)piperidine], the figure is 0.001 to 0.999 nM.
